Bridge positions count the residues as written; N and C are the ends. Square brackets hold non-standard residues; d marks the D form. Peptide text beside a SMILES is read from it. * marks the point of attachment. Ala(indol-2-yl) = N[C@@H](Cc1cc2ccccc2[nH]1)C(=O)O; Bip = N[C@@H](Cc1ccc(-c2ccccc2)cc1)C(=O)O; Phe(3-Me) = Cc1cccc(C[C@H](N)C(=O)O)c1; Cha = N[C@@H](CC1CCCCC1)C(=O)O; dCha = N[C@H](CC1CCCCC1)C(=O)O; dNle = CCCC[C@@H](N)C(=O)O; Carboxymethyl = O=C(O)C*; Orn = NCCC[C@H](N)C(=O)O; Aun = NCCCCCCCCCCC(=O)O; Dab = NCC[C@H](N)C(=O)O; Dap = NC[C@H](N)C(=O)O; AEEA = NCCOCCOCC(=O)O
Molecular target: T1, PD-1/PD-L1 interaction (PE-labeled human PD-L1-Ig binding to Jurkat cell line over-expressing human PD-1) (Homo sapiens, UniProt Q15116)
T1 construct: expressed in transfected cells; host or cells: Jurkat
Experiment: Jurkat-PD-1 Cell Binding High-Content Screening Assay (CBA)
Format: cell-based
Settings: Jurkat cell line over-expressing human PD-1; PE-labeled PD-L1-Ig 20 nM final; read-out: Jurkat hPD1-PDL1 IC50
How it was run: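 Human PD-L1-Ig carrying a covalent PE label on its Ig tag serves as the probe, applied at 20 nM final to compound-treated (2 h, 37° C) Jurkat-hPD-1 cells in medium with 10% fetal calf serum. After one hour, fixation and nuclear staining precede high-content image analysis.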

T1 sequence (Q15116 25-288): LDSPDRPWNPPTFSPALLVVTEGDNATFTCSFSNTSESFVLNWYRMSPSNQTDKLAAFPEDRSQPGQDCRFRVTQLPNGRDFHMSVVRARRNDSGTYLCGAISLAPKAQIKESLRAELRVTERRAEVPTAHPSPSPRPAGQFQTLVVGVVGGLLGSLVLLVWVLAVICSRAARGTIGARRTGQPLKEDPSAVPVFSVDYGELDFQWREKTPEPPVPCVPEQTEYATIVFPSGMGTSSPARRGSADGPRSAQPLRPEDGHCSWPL

IC50 | SMILES
12 nM | CCCC[C@H]1NC(=O)[C@H](CCCN)NC(=O)[C@H](C(C)C)NC(=O)[C@H](Cc2ccc(-c3ccccc3)cc2)NC(=O)[C@H](C(C)C)NC(=O)[C@H](Cc2cccc(C)c2)NC(=O)[C@H](CC(=O)O)NC(=O)[C@H](Cc2ccc(OCC(=O)O)cc2)NC(=O)[C@H](CN)NC(=O)CSC[C@@H](C(=O)NCCOCCOCC(=O)N[C@@H](CCN)C(=O)NCCCCCCCCCCC(=O)O)NC(=O)[C@H](CN)NC(=O)[C@H](C(C)C)NC(=O)[C@H](CC2CCCCC2)NC(=O)[C@H](CCN)NC1=O [Compound 2674] ({CH2CO}-[Dap]Y(Carboxymethyl)D[Phe(3-Me)]V[Bip]V[Orn][dNle][Dab][Cha]V[Dap]C[AEEA][Dab][Aun]-OH; thioether N-14)
24.1 nM | Cc1cccc(C[C@@H]2NC(=O)[C@H](CC(=O)O)NC(=O)[C@H](Cc3ccc(OCC(=O)O)cc3)NC(=O)[C@H](CN)NC(=O)CSC[C@@H](C(=O)NCCOCCOCC(=O)N[C@@H](CCN)C(=O)NCCCCCCCCCCC(=O)O)NC(=O)[C@H](CN)NC(=O)[C@H](C(C)C)NC(=O)[C@H](CC3CCCCC3)NC(=O)[C@H](CCN)NC(=O)[C@@H](CC3CCCCC3)NC(=O)[C@H](CCCN)NC(=O)[C@H](C(C)C)NC(=O)[C@H](Cc3ccc(-c4ccccc4)cc3)NC(=O)[C@H](C(C)C)NC2=O)c1 [Compound 2675] ({CH2CO}-[Dap]Y(Carboxymethyl)D[Phe(3-Me)]V[Bip]V[Orn][dCha][Dab][Cha]V[Dap]C[AEEA][Dab][Aun]-OH; thioether N-14)
10.2 nM | CCCC[C@H]1NC(=O)[C@H](CCCN)NC(=O)[C@H](C(C)C)NC(=O)[C@H](Cc2ccc(-c3ccccc3)cc2)NC(=O)[C@H](C(C)C)NC(=O)[C@H](Cc2cccc(C)c2)NC(=O)[C@H](CC(=O)O)NC(=O)[C@H](Cc2ccc(OCC(=O)O)cc2)NC(=O)[C@H](CN)NC(=O)CSC[C@@H](C(=O)NCCOCCOCC(=O)N[C@@H](CCN)C(=O)NCCCCCCCCCCC(=O)O)NC(=O)[C@H](CCCN)NC(=O)[C@H](C(C)C)NC(=O)[C@H](CC2CCCCC2)NC(=O)[C@H](CCN)NC1=O [Compound 2676] ({CH2CO}-[Dap]Y(Carboxymethyl)D[Phe(3-Me)]V[Bip]V[Orn][dNle][Dab][Cha]V[Orn]C[AEEA][Dab][Aun]-OH; thioether N-14)
18 nM | Cc1cccc(C[C@@H]2NC(=O)[C@H](CC(=O)O)NC(=O)[C@H](Cc3ccc(OCC(=O)O)cc3)NC(=O)[C@H](CN)NC(=O)CSC[C@@H](C(=O)NCCOCCOCC(=O)N[C@@H](CCN)C(=O)NCCCCCCCCCCC(=O)O)NC(=O)[C@H](CCCN)NC(=O)[C@H](C(C)C)NC(=O)[C@H](CC3CCCCC3)NC(=O)[C@H](CCN)NC(=O)[C@@H](CC3CCCCC3)NC(=O)[C@H](CCCN)NC(=O)[C@H](C(C)C)NC(=O)[C@H](Cc3ccc(-c4ccccc4)cc3)NC(=O)[C@H](C(C)C)NC2=O)c1 [Compound 2677] ({CH2CO}-[Dap]Y(Carboxymethyl)D[Phe(3-Me)]V[Bip]V[Orn][dCha][Dab][Cha]V[Orn]C[AEEA][Dab][Aun]-OH; thioether N-14)
15.2 nM | CCCC[C@H]1NC(=O)[C@H](CCCN)NC(=O)[C@H](C(C)C)NC(=O)[C@H](Cc2ccc(-c3ccccc3)cc2)NC(=O)[C@H](C(C)C)NC(=O)[C@H](Cc2cc3ccccc3[nH]2)NC(=O)[C@H](CC(=O)O)NC(=O)[C@H](Cc2ccc(OCC(=O)O)cc2)NC(=O)[C@H](CN)NC(=O)CSC[C@@H](C(=O)N[C@@H](CCN)C(=O)NCCOCCOCC(=O)NCCCCCCCCCCC(=O)O)NC(=O)[C@H](CCCCN)NC(=O)[C@H](C(C)C)NC(=O)[C@H](CC2CCCCC2)NC(=O)[C@H](CCN)NC1=O [Compound 2678] ({CH2CO}-[Dap]Y(Carboxymethyl)D[Ala(indol-2-yl)]V[Bip]V[Orn][dNle][Dab][Cha]VKC[Dab][AEEA][Aun]-OH; thioether N-14)
26.9 nM | CC(C)[C@@H]1NC(=O)[C@H](CC2CCCCC2)NC(=O)[C@H](CCN)NC(=O)[C@@H](CC2CCCCC2)NC(=O)[C@H](CCCN)NC(=O)[C@H](C(C)C)NC(=O)[C@H](Cc2ccc(-c3ccccc3)cc2)NC(=O)[C@H](C(C)C)NC(=O)[C@H](Cc2c[nH]c3ccccc23)NC(=O)[C@H](CC(=O)O)NC(=O)[C@H](Cc2ccc(OCC(=O)O)cc2)NC(=O)[C@H](CN)NC(=O)CSC[C@@H](C(=O)N[C@@H](CCN)C(=O)NCCOCCOCC(=O)NCCCCCCCCCCC(=O)O)NC(=O)[C@H](CCCCN)NC1=O [Compound 2679] ({CH2CO}-[Dap]Y(Carboxymethyl)DWV[Bip]V[Orn][dCha][Dab][Cha]VKC[Dab][AEEA][Aun]-OH; thioether N-14)
13.2 nM | CCCC[C@H]1NC(=O)[C@H](CCCN)NC(=O)[C@H](C(C)C)NC(=O)[C@H](Cc2ccc(-c3ccccc3)cc2)NC(=O)[C@H](C(C)C)NC(=O)[C@H](Cc2cccc(C)c2)NC(=O)[C@H](CC(=O)O)NC(=O)[C@H](Cc2ccc(OCC(=O)O)cc2)NC(=O)[C@H](CN)NC(=O)CSC[C@@H](C(=O)N[C@@H](CCN)C(=O)NCCOCCOCC(=O)NCCCCCCCCCCC(=O)O)NC(=O)[C@H](CN)NC(=O)[C@H](C(C)C)NC(=O)[C@H](CC2CCCCC2)NC(=O)[C@H](CCN)NC1=O [Compound 2680] ({CH2CO}-[Dap]Y(Carboxymethyl)D[Phe(3-Me)]V[Bip]V[Orn][dNle][Dab][Cha]V[Dap]C[Dab][AEEA][Aun]-OH; thioether N-14)
13 nM | Cc1cccc(C[C@@H]2NC(=O)[C@H](CC(=O)O)NC(=O)[C@H](Cc3ccc(OCC(=O)O)cc3)NC(=O)[C@H](CN)NC(=O)CSC[C@@H](C(=O)N[C@@H](CCN)C(=O)NCCOCCOCC(=O)NCCCCCCCCCCC(=O)O)NC(=O)[C@H](CN)NC(=O)[C@H](C(C)C)NC(=O)[C@H](CC3CCCCC3)NC(=O)[C@H](CCN)NC(=O)[C@@H](CC3CCCCC3)NC(=O)[C@H](CCCN)NC(=O)[C@H](C(C)C)NC(=O)[C@H](Cc3ccc(-c4ccccc4)cc3)NC(=O)[C@H](C(C)C)NC2=O)c1 [Compound 2681] ({CH2CO}-[Dap]Y(Carboxymethyl)D[Phe(3-Me)]V[Bip]V[Orn][dCha][Dab][Cha]V[Dap]C[Dab][AEEA][Aun]-OH; thioether N-14)
17.4 nM | CCCC[C@H]1NC(=O)[C@H](CCCN)NC(=O)[C@H](C(C)C)NC(=O)[C@H](Cc2ccc(-c3ccccc3)cc2)NC(=O)[C@H](C(C)C)NC(=O)[C@H](Cc2cccc(C)c2)NC(=O)[C@H](CC(=O)O)NC(=O)[C@H](Cc2ccc(OCC(=O)O)cc2)NC(=O)[C@H](CN)NC(=O)CSC[C@@H](C(=O)N[C@@H](CCN)C(=O)NCCOCCOCC(=O)NCCCCCCCCCCC(=O)O)NC(=O)[C@H](CCCNC(=N)N)NC(=O)[C@H](C(C)C)NC(=O)[C@H](CC2CCCCC2)NC(=O)[C@H](CCN)NC1=O [Compound 2682] ({CH2CO}-[Dap]Y(Carboxymethyl)D[Phe(3-Me)]V[Bip]V[Orn][dNle][Dab][Cha]VRC[Dab][AEEA][Aun]-OH; thioether N-14)
14.9 nM | Cc1cccc(C[C@@H]2NC(=O)[C@H](CC(=O)O)NC(=O)[C@H](Cc3ccc(OCC(=O)O)cc3)NC(=O)[C@H](CN)NC(=O)CSC[C@@H](C(=O)N[C@@H](CCN)C(=O)NCCOCCOCC(=O)NCCCCCCCCCCC(=O)O)NC(=O)[C@H](CCCNC(=N)N)NC(=O)[C@H](C(C)C)NC(=O)[C@H](CC3CCCCC3)NC(=O)[C@H](CCN)NC(=O)[C@@H](CC3CCCCC3)NC(=O)[C@H](CCCN)NC(=O)[C@H](C(C)C)NC(=O)[C@H](Cc3ccc(-c4ccccc4)cc3)NC(=O)[C@H](C(C)C)NC2=O)c1 [Compound 2683] ({CH2CO}-[Dap]Y(Carboxymethyl)D[Phe(3-Me)]V[Bip]V[Orn][dCha][Dab][Cha]VRC[Dab][AEEA][Aun]-OH; thioether N-14)
36.3 nM | Cc1cccc(C[C@@H]2NC(=O)[C@H](CC(=O)O)NC(=O)[C@H](Cc3ccc(OCC(=O)O)cc3)NC(=O)[C@H](CN)NC(=O)CSC[C@@H](C(=O)N[C@@H](CCN)C(=O)NCCOCCOCC(=O)NCCCCCCCCCCC(=O)O)NC(=O)[C@H](CN)NC(=O)[C@H](C(C)C)NC(=O)[C@H](CC3CCCCC3)NC(=O)[C@H](CCN)NC(=O)[C@@H](CC3CCCCC3)NC(=O)[C@H](CCCN)NC(=O)[C@H](C(C)C)NC(=O)[C@H](Cc3ccc(-c4ccccc4)cc3)NC(=O)[C@H](C(C)C)NC2=O)c1 [Compound 2684] ({CH2CO}-[Dap]Y(Carboxymethyl)D[Phe(3-Me)]V[Bip]V[Orn][dCha][Dab][Cha]V[Dap]C[Dab][AEEA][Aun]-OH; thioether N-14)
11.6 nM | CCCC[C@H]1NC(=O)[C@H](CCCN)NC(=O)[C@H](C(C)C)NC(=O)[C@H](Cc2ccc(-c3ccccc3)cc2)NC(=O)[C@H](C(C)C)NC(=O)[C@H](Cc2cccc(C)c2)NC(=O)[C@H](CC(=O)O)NC(=O)[C@H](Cc2ccc(OCC(=O)O)cc2)NC(=O)[C@H](CN)NC(=O)CSC[C@@H](C(=O)N[C@@H](CCCCN)C(=O)NCCCCCCCCCCC(=O)O)NC(=O)[C@H](CN)NC(=O)[C@H](C(C)C)NC(=O)[C@H](CC2CCCCC2)NC(=O)[C@H](CCN)NC1=O [Compound 2685] ({CH2CO}-[Dap]Y(Carboxymethyl)D[Phe(3-Me)]V[Bip]V[Orn][dNle][Dab][Cha]V[Dap]CK[Aun]-OH; thioether N-14)
16.1 nM | Cc1cccc(C[C@@H]2NC(=O)[C@H](CC(=O)O)NC(=O)[C@H](Cc3ccc(OCC(=O)O)cc3)NC(=O)[C@H](CN)NC(=O)CSC[C@@H](C(=O)N[C@@H](CCCCN)C(=O)NCCCCCCCCCCC(=O)O)NC(=O)[C@H](CN)NC(=O)[C@H](C(C)C)NC(=O)[C@H](CC3CCCCC3)NC(=O)[C@H](CCN)NC(=O)[C@@H](CC3CCCCC3)NC(=O)[C@H](CCCN)NC(=O)[C@H](C(C)C)NC(=O)[C@H](Cc3ccc(-c4ccccc4)cc3)NC(=O)[C@H](C(C)C)NC2=O)c1 [Compound 2686] ({CH2CO}-[Dap]Y(Carboxymethyl)D[Phe(3-Me)]V[Bip]V[Orn][dCha][Dab][Cha]V[Dap]CK[Aun]-OH; thioether N-14)

Reference: patent publication US20260022142A1, “MACROCYCLIC IMMUNOMODULATORS” (Bristol-Myers Squibb Company, priority 2022, published 2026)
